Drawing on PMC9798632, “Tailor-made alkaliphilic and thermostable fungal laccases for industrial wood processing” (Biotechnology for Biofuels and Bioproducts, 2022), this text covers Km for one compound.

Assay in all cases: spectrophotometric oxidation at […] nm, hyperbolic fit
Common to all, as to assay type: biochemical

Test [1] has as its target T1, RY2 laccase (parent of Li9, Li10, Li11, C-LeB, Mol2, Mol3) (basidiomycete PM1, UniProt Q12571, N284V/F413N/F417I/V445T/S450T/D462N/F475P/A479L/F481M, form not given).
T1 construct: one polypeptide; engineered from 7D5 (PDB 6H5Y, used as model template), which came from DNA shuffling of evolved PM1L and P. cinnabarinus laccases; RY2 residues: D263 (from N263), P454, S207, S291, V413, D457, A461, I468; evolved alpha-factor leader a9H2 as signal peptide; host S. cerevisiae BJ5465, purified by HPLC
Particulars: 100 mM Tris-HCl pH 8, room temperature.

The target in test [2] is T2, RY2 laccase (parent of Li9, Li10, Li11, C-LeB, Mol2, Mol3) (basidiomycete PM1, UniProt Q12571, N284V/F413N/F417I/F475P/A479L/F481M, form not given).
T2 construct: one polypeptide; engineered from 7D5 (PDB 6H5Y, used as model template), which came from DNA shuffling of evolved PM1L and P. cinnabarinus laccases; RY2 residues: D263 (from N263), P454, S207, S291, V413, D457, A461, I468; evolved alpha-factor leader a9H2 as signal peptide; host S. cerevisiae BJ5465, purified by HPLC
Particulars: 100 mM Tris-HCl pH 8, room temperature.

Test [3] concerns the target T3, RY2 laccase (parent of Li9, Li10, Li11, C-LeB, Mol2, Mol3) (basidiomycete PM1, UniProt Q12571, N284D/F413N/F417I/F475P/F481M, form not given).
T3 construct: one polypeptide; engineered from 7D5 (PDB 6H5Y, used as model template), which came from DNA shuffling of evolved PM1L and P. cinnabarinus laccases; RY2 residues: D263 (from N263), P454, S207, S291, V413, D457, A461, I468; evolved alpha-factor leader a9H2 as signal peptide; host S. cerevisiae BJ5465, purified by HPLC
Particulars: 100 mM Tris-HCl pH 8, room temperature.

Test [4] has as its target T4, RY2 laccase (parent of Li9, Li10, Li11, C-LeB, Mol2, Mol3) (basidiomycete PM1, UniProt Q12571, N284D/F475P, form not given).
T4 construct: one polypeptide; engineered from 7D5 (PDB 6H5Y, used as model template), which came from DNA shuffling of evolved PM1L and P. cinnabarinus laccases; RY2 residues: D263 (from N263), P454, S207, S291, V413, D457, A461, I468; evolved alpha-factor leader a9H2 as signal peptide; host S. cerevisiae BJ5465, purified by HPLC
Particulars: pH 5, room temperature.

The target of test [5] is T5, RY2 laccase (parent of Li9, Li10, Li11, C-LeB, Mol2, Mol3) (basidiomycete PM1, UniProt Q12571, N284V/F413N/F417I/F475P/F481M, form not given).
T5 construct: one polypeptide; engineered from 7D5 (PDB 6H5Y, used as model template), which came from DNA shuffling of evolved PM1L and P. cinnabarinus laccases; RY2 residues: D263 (from N263), P454, S207, S291, V413, D457, A461, I468; evolved alpha-factor leader a9H2 as signal peptide; host S. cerevisiae BJ5465, purified by HPLC
Particulars: 100 mM Tris-HCl pH 8, room temperature.

T3 sequence (Q12571 entry or part of it N284D/F413N/F417I/F475P/F481M, form open): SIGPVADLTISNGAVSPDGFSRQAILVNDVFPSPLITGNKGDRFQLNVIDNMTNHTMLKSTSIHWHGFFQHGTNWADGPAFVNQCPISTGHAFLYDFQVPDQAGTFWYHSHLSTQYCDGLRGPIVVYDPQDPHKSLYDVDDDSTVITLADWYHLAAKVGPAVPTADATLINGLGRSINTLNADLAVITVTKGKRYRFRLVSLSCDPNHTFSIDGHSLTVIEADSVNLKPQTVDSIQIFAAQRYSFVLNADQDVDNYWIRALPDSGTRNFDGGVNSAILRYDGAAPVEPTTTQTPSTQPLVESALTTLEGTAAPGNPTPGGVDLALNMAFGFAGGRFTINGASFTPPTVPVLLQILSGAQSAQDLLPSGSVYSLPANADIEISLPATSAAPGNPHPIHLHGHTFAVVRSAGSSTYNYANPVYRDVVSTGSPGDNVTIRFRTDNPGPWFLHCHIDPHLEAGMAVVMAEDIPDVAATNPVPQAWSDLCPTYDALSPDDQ
T1 sequence (Q12571 entry or part of it N284V/F413N/F417I/V445T/S450T/D462N/F475P/A479L/F481M, form open): as the sequence (Q12571 entry or part of it N284D/F413N/F417I/F475P/F481M, form open) above, with D263V, V424T, S429T, D441N, A458L counted along it
T5 sequence (Q12571 entry or part of it N284V/F413N/F417I/F475P/F481M, form open): as the sequence (Q12571 entry or part of it N284D/F413N/F417I/F475P/F481M, form open) above, with D263V counted along it
T2 sequence (Q12571 entry or part of it N284V/F413N/F417I/F475P/A479L/F481M, form open): as the sequence (Q12571 entry or part of it N284D/F413N/F417I/F475P/F481M, form open) above, with D263V, A458L counted along it
T4 sequence (Q12571 entry or part of it N284D/F475P, form open): as the sequence (Q12571 entry or part of it N284D/F413N/F417I/F475P/F481M, form open) above, with N392F, I396F, M460F counted along it

In the case of `COc1cccc(OC)c1O` [2,6-dimethoxyphenol], the Km (in general, the substrate concentration at which the rate is half of its maximum) in test [1] was 1700 ± 200 µM; in test [2] it was 1700 ± 100 µM; in test [3], 20000 ± 2400 µM; in test [4], 260 ± 40 µM; in test [5], 1500 ± 100 µM.
